Reference: ChEMBL document CHEMBL1800029, “N-aryl-benzimidazolones as novel small molecule HSP90 inhibitors” (Bioorg Med Chem Lett, 2010)

How the values were obtained:
[1] = biological target: T1, Heat shock protein HSP 90-alpha (Homo sapiens, UniProt P07900)
Description: Inhibition of Hsp90alpha ATPase activity by malachite green ATP-ase assay

[2] = biological target: T1, Heat shock protein HSP 90-alpha; remark: listed apart in the source
Description: Binding affinity to Hsp90alpha N-terminal ATPase domain by TR-FRET assay based competitive binding assay

[3] = biological target: T1, Heat shock protein HSP 90-alpha; test: Inhibition of Hsp90alpha in human H1299 cells assessed as HIF-1alpha degradation by luciferase reporter assay; format: cell-based
SK-BR-3 = test: Cytotoxicity against human SKBR3 cells; format: functional, cell-based
[4] = biological target: T1, Heat shock protein HSP 90-alpha; test: Inhibition of Hsp90alpha in human SKBR3 cells assessed as up-regulation of HSP70 protein by Western blot analysis; format: cell-based, SK-BR-3
[5] = biological target: T1, Heat shock protein HSP 90-alpha; test: Inhibition of Hsp90alpha in human SKBR3 cells assessed as ErbB2 degradation by Western blot analysis; format: cell-based, SK-BR-3

IC50 [1] [nM]	IC50 [2] [nM]	SMILES	further results
24800	40	CC(=O)NCc1ccc2c(c1)[nH]c(=O)n2-c1cc(Cl)c(O)cc1O	
22900	72	O=C(NCc1ccc2c(c1)[nH]c(=O)n2-c1cc(Cl)c(O)cc1O)c1ccccc1	
25200	50	CS(=O)(=O)NCc1ccc2c(c1)[nH]c(=O)n2-c1cc(Cl)c(O)cc1O	
14200	33	CCNC(=O)NCc1ccc2c(c1)[nH]c(=O)n2-c1cc(Cl)c(O)cc1O	
15400	60	O=C(NCc1ccc2c(c1)[nH]c(=O)n2-c1cc(Cl)c(O)cc1O)Nc1ccccc1	
3420	27	O=c1[nH]c2cc(CNS(=O)(=O)c3ccccc3)ccc2n1-c1cc(Cl)c(O)cc1O	
1140	47	O=c1[nH]c2cc(CNS(=O)(=O)c3ccc4ccccc4c3)ccc2n1-c1cc(Cl)c(O)cc1O	
127000	2320	O=c1[nH]c2ccccc2n1-c1cc(C(F)(F)F)ccc1O	
85000		O=c1[nH]c2ccccc2n1-c1ccc(O)cc1O	
200000	34900	O=c1[nH]c2ccccc2n1-c1cc(O)ccc1O	
15200	54	O=c1[nH]c2ccccc2n1-c1cc(Cl)c(O)cc1O	
200000	2530	O=c1[nH]c2ccccc2n1-c1cc(O)c(Cl)cc1O	
		CCNC(=O)c1n[nH]c(-c2cc(Cl)c(O)cc2O)c1-c1ccc(OC)cc1	EC50 (SK-BR-3): 250 nM
81000	3320	O=c1[nH]c2cc(C(F)(F)F)ccc2n1-c1cc(C(F)(F)F)ccc1O	
		C=CCNC1=C2C[C@@H](C)C[C@H](OC)[C@H](O)[C@@H](C)/C=C(\C)[C@H](OC(N)=O)[C@@H](OC)/C=C\C=C(/C)C(=O)NC(=CC1=O)C2=O [TANESPIMYCIN]	EC50 (SK-BR-3): 25 nM

SMILES	IC50 [1] [nM]	IC50 [2] [nM]	further results
O=c1[nH]c2cc(CNS(=O)(=O)c3cccc4ccccc34)ccc2n1-c1cc(Cl)c(O)cc1O	550		EC50 [3]: 190 nM; EC50 (SK-BR-3): 12 nM; EC50 [4]: 60 nM; EC50 [5]: < 100 nM
